Test results published in patent US20120095325A1, “TREATMENT OF BRAIN DISEASES VIA ULTRASOUND/MAGNETIC TARGETING DELIVERY AND TRACING OF THERAPEUTIC AGENTS” (Chang Gung Medical Foundation, Linkou Branch, priority 2010, published 2012).
Converted amounts (≈) assume the structure as drawn.

How the values were obtained:
[1] = cited from earlier work
[2] = tested on: breast carcinoma; conditions: cited from earlier work
[3] = tested on: Rat glioma C6 cells; assay: Cell toxicity in vitro, XTT assay; format: cell-based; conditions: 12 hrs, no magnetic field
Procedure: Rat glioma C6 cells were cultured in the culture medium RPMI 1640 supplemented with 2.2 mg/mL sodium carbonate, 10% FBS, 50 μg/mL gentamycin, 50 μg/mL penicillin and 50 μg/mL streptomycin at 37° C. and 5% CO2. Approximately 10,000 cells were placed in each well of a 96-well culture plate and incubated in a humidified chamber at 37° C. and 5% CO2 for 24 hrs.
Before counting viable cells by the XTT assay, the culture medium in each well was removed and cells were incubated in 120 μL of XTT for 3 hrs. After the reaction, a 100 μL aliquot of the solution in each well was sampled and transferred to a 96-well counting dish, followed by measuring absorbance at OD490 using an ELISA reader, so as to determine cell viability (%). The experimental results were expressed as mean±SD. The in vitro cytotoxicities of MNPs, epirubicin and epirubicin-MNPs on C6 cells were evaluated by the IC50 values thereof.

[4] = in vivo; conditions: Sprague-Dawley, rat
Procedure: All animal experiments were approved by the Institutional Animal Care and Use Committee of Chang Gung University and adhered to their experimental animal care guidelines. […] Brain tumors were induced in another 14 rats by injection of cultured C6 tumor cells. Briefly, C6 tumor cells (10^6 cells/plate) were injected into the brains using a microdialysis pump system (CMA Microdialysis). Animals underwent FUS treatment on Day 10 after tumor implantation to determine if the method could open an area of the BBB sufficiently large to cover the area of the induced tumors.
Before the FUS treatment, the rats were anesthetized by i.p. injection of chlorohydrate (30 mg/kg). The top of the cranium of each rat was shaved with clippers, and a PE-50 catheter was inserted into the jugular vein. The animal's head was attached tightly to a 4-cm^2 thin-film window directly under an acrylic water tank. The animal's cranial opening was filled with degassed water to serve as an acoustic coupling device. SonoVue® SF6-coated US microbubbles (mean diameter 2-5 μm, 2.5 μg/kg; Bracco) were administered i.v. before sonication (with a time lapse<10 s). Each bolus injection contained 0.1 mL of microbubble/kg of body weight mixed with 0.2 mL of saline solution. A heparin flush (0.2 mL) was subsequently performed.
Animal experiments were monitored using the 3-T magnetic resonance imager to localize the geometric center of the FUS and the energy exposure site. US was delivered to the brain transcranially using a MR-compatible spherical transducer (diameter, 60 mm; radius of curvature, 80 mm; frequency, 400 kHz, electric-to-acoustic efficiency, 70%; Imasonics) with the center of the focal zone positioned at a penetration depth of 2 to 3 mm in each hemisphere. Single burst-mode US was delivered, with a burst length of 10 ms, a pulse-repetition frequency of 1 Hz, and total sonication duration of 120 s. For optimization studies, the input electric power used was 2 W, corresponding to an acoustic negative peak (i/e., spatial-peak, temporal-peak) pressure amplitude measured through the animal cranium equal to 0.62 MPa.
In the MT treatment, a permanent magnet having a peak magnetic flux density of 0.18 T, 0.4 T or 0.55 T was used to produce an inhomogeneous magnetic field. To concentrate the magnetic flux density onto the disrupted region of the BBB, the magnet was tilted at an angle relative to the animal's brain, attached to the animal's scalp, and supported and tightened using a custom-made plastic belt for the desired duration (3-24 hrs). MRI images were acquired immediately after removal of the magnet.
Animals' brains were monitored by MRI after the FUS treatment and/or the MT treatment. All MRI images were acquired on a 3-T scanner using the standard wrist coil with an inner diameter of 13 cm. The animals were anesthetized with 2% isoflurane throughout the MRI imaging process, placed in an acrylic holder, and positioned in the center of the magnet. An i.v. bolus (0.1 mmol/kg) of gadopentetate dimeglumine MRI contrast agent (Magnevist; Berlex) was administered before scanning. To identify the region of the BBB disrupted by the FUS treatment, contrast-enhanced T1 turbo spin-echo sequences were acquired using the following parameters: repetition/echo time, 780 ms/15 ms; slice thickness, 1.4 mm; matrix size, 128×256; field of view, 39×60 mm (resolution, 0.3×0.3 mm). T2-weighted images were obtained to produce R2 maps both in gel phantom or in vivo experiments by using a double-TE spinecho sequence and acquired three times, using the following parameters: repetition time, 3,860 ms, echo time, 8/14, 28/57, and 85/228 ms; matrix, 128×256; field of view, 38×76 mm (resolution, 0.3×0.3 mm); and slice thickness, 1.4 mm.

SMILES | doxorubicin delivered into normal brains by FUS ([1]; FUS treatment used safely) | doxorubicin delivery by FUS ([1]; increased delivery, at the expense of increased damage to brain tissue) | therapeutic range reported in vivo ([2]; human, in vivo) [ng/g tumor] | clinical response rate ([2]; patients with breast carcinoma) [%] | IC50 [3] [µg/mL] | concentration at 6 hr [4] [ng/g] | epirubicin accumulated in tissue [4] | epirubicin concentration measured in tissues per iron (range) [4] | epirubicin delivered, assessed by ICP-OES/HPLC [4] | epirubicin delivered, assessed by MRI [4] | mean immobilization ratio in tissues [4] [μg epirubicin/mg iron ion]
COc1cccc2c1C(=O)c1c(O)c3c(c(O)c1C2=O)C[C@@](O)(C(=O)CO)C[C@@H]3O[C@H]1C[C@H](N)[C@H](O)[C@H](C)O1 [doxorubicin] | 886±327 ng doxorubicin per gram of tissue | 5,336±659 ng/g | 819±482 | 39 | – | – | – | – | – | – | –
COc1cccc2c1C(=O)c1c(O)c3c(c(O)c1C2=O)C[C@@](O)(C(=O)CO)C[C@@H]3O[C@H]1C[C@H](N)[C@@H](O)[C@H](C)O1 [epirubicin] | – | – | – | – | 6.7 (≈ 12.3 µM) | 21700 | 1,336±1,182 ng epirubicin per gram of tissue | 383-415 μg epirubicin/mg iron ion | 1,162±1,028 ng/g | 1,197±226 ng/g | 395.6±17.3
